Test results taken from US20250262215A1, “USE OF CYCLIN E1 STATUS AS A PREDICTIVE BIOMARKER FOR TREATING CANCER WITH WEE1 INHIBITORS” (Zeno Management, Inc., priority 2022, published 2025).

How the values were obtained:
[1] = system: SKOV3 cells (non-CCNE1-amplified, wild-type CCNE1 CN=2); assay: SKOV3 cell line-derived xenograft (CDX), tumor growth inhibition; assay type: in vivo, mice; conditions: 80 mg/kg Azenosertib daily
Method: Mice were inoculated with SKOV3 cells (non-CCNE1-amplified, wild-type CCNE1 CN=2) on the right flank with the single cell suspension of 95% viable tumor cells (1×10^7) in 100 μL McCoy's 5a and Matrigel mixture (1:1 ratio) without serum for the tumor development. Animals were randomized and treated with vehicle (20% HP-β-CD) or 80 mg/kg Azenosertib daily for 21 days when the mean tumor volume reached 215 mm^3. Tumor growth inhibition (TGI) was calculated using the following equation TGI=(1−(Td−T0)/(Cd−C0))×100%. Td and Cd are the mean tumor volumes of the treated and control animals, and T0 and C0 are the mean tumor volumes of the treated and control animals at the start of the experiment. […] (FIGS. 6A and 6B).

[2] = system: OVCAR3 CCNE1-amplified (CN = 14) (Cyclin E1-high); assay: Azenosertib and paclitaxel combination study, OVCAR3 tumors; assay type: in vivo, mice; conditions: Azenosertib 60 mg/kg QD × 28 and/or paclitaxel 5 mg/kg 4 days on, 3 days off × 4 cycles
Excerpt: (§1) To evaluate the effects of Azenosertib in combination with paclitaxel, mice were inoculated with A 2780 (non-CCNE1-amplified, CN=2) (FIGS. 10A and 10B) or OVCAR3 (CCNE1 amplified, CN=14) (FIG. 11A and FIG. 11B) cells. Animals were randomized and treated as summarized in Table 2 once the mean tumor volume reached a specified size.

HGSOC cells = assay: Growth rate inhibition (GR) by CellTiter-Glo and GR calculator; assay type: cell-based; conditions: for effect on growth rate (GR): relative to untreated control
Excerpt: To confirm whether Cyclin E1 expression levels were responsible for increased sensitivity to Azenosertib, OV90, Kuramochi and COV362 cells (low endogenous expression levels of Cyclin E1) were transduced with a lentiviral vector carrying the CCNE1 gene or with an empty vector control. Stable OV90, Kuramochi and COV362 cell lines were established by puromycin selection. Cyclin E1 overexpression in the stable OV90 cell line compared to empty vector control cells was confirmed by Western blotting (FIG. 1C). […] Sensitization of HGSOC cell lines by overexpression of Cyclin E1 to Azenosertib was assessed by plotting the growth-rate (GR) inhibition in FIG. 1D. It was observed that Cyclin E1 overexpression sensitized HGSOC cell lines to Azenosertib by further decreasing growth rate and cell viability compared to control empty vector cell lines (FIG. 1D). GR50 and IC50 values of Azenosertib were determined by CellTiter-Glo (CTG) assay and the GR calculator.
HGSOC cells were assessed for growth rate inhibition (GR) in the presence of Azenosertib (relative to an untreated control). GR value is independent of cell division rate and was determined as described in Hafner et al. (Curr. Protoc. Chem. Biol. 9, 96-116 (2017)). HGSOC cells with high Cyclin E1 protein expression were amongst the most sensitive to Azenosertib. […] (FIG. 2). […] In Cyclin E1-low ovarian cancer cell lines, overexpression of Cyclin E1 by lentivirus increased sensitivity to Azenosertib.

[3] = system: CCNE1-amplified platinum-resistant ovarian cancer; assay: Azenosertib in one heavily pre-treated subject (Example 10); assay type: in vivo, human; conditions: at least 400 mg once a day, 5 days on, two off days, for 11 months
Method: The subject was selected to have CCNE1-amplified status (confirmed by Foundation assay) and was administered Azenosertib in accordance with an intermittent dosing schedule of at least 400 mg Azenosertib once a day for five consecutive days, followed by two off days for 11 months. The subject is a person who received 10 prior lines of therapy: (1) Avelumab (SD); (2) Doxorubicin Liposomal (PD); (3) Topotecan/bevacizumab (PD); (4) Cyclophosphamide/bevacizumab (unk); (5) XMT1536 (NaPi2b ADC) (PR); (6) APG115 (MDM2 inh)/Pembrolizumab (SD); (7) ABBV-155 ([…] ADC) (PD); (8) NC 318 (Siglec-15 mA B) (SD); (9) SM 08502 (CLK inhibitor) (PD); (10) NBMBMX (HDAC8 inh) (SD).

[4] = system: HCC1806 human triple negative breast cancer cells (CCNE1-amplified, CN=7); assay: HCC1806 xenograft, tumor growth; assay type: in vivo, BALB/c nude mice; conditions: 80 mg/kg Azenosertib daily; after 28 days
Method: 1×10^6 HCC1806 human triple negative breast cancer cells (CCNE1-amplified, CN=7) were inoculated into the right flank of ten 6-8-week-old female BALB/c nude mice. Animals were randomized and treatment started when the mean tumor volume reached 155 mm^3. Animals were treated with vehicle (20% HP-β-CD) or 80 mg/kg Azenosertib daily and tumor volumes and body weight were measured twice weekly.

[5] = system: SKOV3, OVCAR3 and HCC1806 tumors; assay: Tolerability in tumor-bearing mice dosed orally every day (Example 3); assay type: in vivo, NOD/SCID mice or BALB/c nude mice
Method: NOD/SCID mice (SKOV3-Cyclin E1-low and OVCAR3-Cyclin E1-high) or BALB/c nude mice (HCC1806) bearing corresponding tumors were dosed orally every day for the time as shown in FIGS. 5A and 8A. Treatment was well-tolerated and the change in tumor volume was plotted against time of administration. Target engagement of Azenosertib (decreased pCDK1) and γH2AX were examined by IHC in tumors after 12 hrs of Azenosertib treatment in SKOV3-Cyclin E1-low and OVCAR3-Cyclin E1-high cells. Y-axis represents the sum of H-score evaluated by 3 independent pathologists (FIGS. 4B and 4C). Replication stress markers pCHK1 and γH2AX were determined by Western Blot in OVCAR3 tumor samples with or without Azenosertib treatment for 12 hrs (FIG. 4D).

[6] = system: OVCAR8 (non=CCNE1-amplified) CDX; assay: OVCAR8 CDX model, tumor growth inhibition; assay type: in vivo, mice; conditions: 80 mg/kg Azenosertib daily for 39 days
[7] = system: OVCAR-3 cells (CCNE1-amplified, CN=14); assay: OVCAR-3 xenograft, tumor growth inhibition; assay type: in vivo, NOD/SCID mice; conditions: 80 mg/kg Azenosertib daily; after 28 days
Method: 6-8 weeks old female NOD/SCID mice were inoculated with OVCAR-3 cells (CCNE1-amplified, CN=14) into the right flank. Animals were randomized and treated with […] (20% HP-β-CD) or 80 mg/kg Azenosertib daily once the mean tumor volume reached 111 mm^3. Tumor volumes and body weight were measured twice weekly. […] Reduction in tumor growth was also observed in animals treated with 40 mg/kg Azenosertib daily, 60 mg/kg Azenosertib daily, 80 mg/kg Azenosertib daily. (FIGS. 8C and 8D).

[8] = system: A2780 non-CCNE1-amplified (CN = 2) (Cyclin E1-low); assay: Azenosertib and paclitaxel combination study, A2780 tumors; assay type: in vivo, mice; conditions: Azenosertib 60 mg/kg QD and/or paclitaxel 10 mg/kg, schedules of Table 2
Excerpt: as §1

[9] = system: CCNE1-amplified platinum-resistant ovarian cancer; set-up: key: CR: complete response; PR: partial response; SD: stable disease; PD: progressive disease; NE: not evaluable; NA: not available; conditions: one subject, before Azenosertib; cited from earlier work

Molecule: C=CCn1c(=O)c2cnc(Nc3ccc(N4CCN(C)CC4)cc3)nc2n1-c1ccc2c(n1)[C@@](O)(CC)CC2 [Azenosertib]
- average tumor growth inhibition TGI(80 mpk, Day 28) [1]: 51.5%
- Tumor Growth Inhibition [2]: 68%
- effect on growth rate (GR) (HGSOC cells; COV362, JHOMI, OAW28, OVCAR3, CAOV3, and OVCAR4 cells): cytotoxic effect
- effect on growth rate (GR) (HGSOC cells; ES2 and TYK-nu cells): cytotoxic effect
- effect on growth rate (GR) (HGSOC cells; OV90 and Kuramochi cells): inhibitory effect
- GRmax (HGSOC cells; ovarian cancer cell lines overexpressing Cyclin E1 protein (Cyclin E1-high)): < −0.5
- durable cPR [3]: −71%
- reduced tumor growth vs vehicle [4]: 63.5%
- tolerability of treatment [5]: well-tolerated
- average tumor growth inhibition TGI(80 mpk, Day 28) [6]: 52.8%
- reduced tumor growth TGI(80 mpk, Day 28) [7]: 88%
- Tumor Growth Inhibition [8]: 34%

Molecule: CC(=O)O[C@H]1C(=O)[C@@]2(C)[C@H]([C@H](OC(=O)c3ccccc3)[C@]3(O)C[C@H](OC(=O)[C@H](O)[C@@H](NC(=O)c4ccccc4)c4ccccc4)C(C)=C1C3(C)C)[C@]1(OC(C)=O)CO[C@@H]1C[C@@H]2O [Paclitaxel, paclitaxel, reference compound]
- Tumor Growth Inhibition [2]: 74%
- Tumor Growth Inhibition [8]: 46%

Molecule: CN1CCN(c2cc(C(=O)Nc3cc4cc(-c5cnn(C)c5)ccc4cn3)ccn2)CC1 [SM 08502, reference compound]
- response to prior line of therapy [9]: PD

Molecule: Avelumab: prior line of therapy of the subject [reference compound]
- response to prior line of therapy [9]: SD

B1: ABBV-155 (conjugate, chains of the INN, looked up)
VH: EVQLQESGPGLVKPSETLSLTCAVTGYSITSGYSWHWIRQFPGNGLEWMGYIHSSGSTNYNPSLKSRISISRDTSKNQFFLKLSSVTAADTAVYYCAGYDDYFEYWGQGTTVTVSS
VL: DIQMTQSPSSLSASVGDRVTITCKASQNVGFNVAWYQQKPGKSPKALIYSASYRYSGVPSRFSGSGSGTDFTLTISSLQPEDFAEYFCQQYNWYPFTFGQGTKLEIK
modifications: clezutoclax payload
- response to prior line of therapy [9]: PD

B2: XMT1536 (conjugate, chains of the INN, looked up)
VH: QVQLVQSGAEVVKPGASVKMSCKASGYTFTGYNIHWVKQAPGQGLEWIGAIYPGNGDTSYKQKFRGRATLTADTSTSTVYMELSSLRSEDSAVYYCARGETARATFAYWGQGTLVTVSS
VL: DIQMTQSPSSLSASVGDRVTITCSASQDIGNFLNWYQQKPGKTVKVLIYYTSSLYSGVPSRFSGSGSGTDYTLTISSLQPEDFATYYCQQYSKLPLTFGQGTKLELK
modifications: rilsodotin (auristatin) payload
- response to prior line of therapy [9]: PR
